Test results as given in US20200239587A1, “SENSITIZATION OF TUMORS TO THERAPIES THROUGH ENDOGLIN ANTAGONISM” (Cedars-Sinai Medical Center, priority 2016, published 2020).

Assays:
22Rv1 cells = test: COMET assay; type: cell-based, human; settings: irradiated
Experimental: 22Rv1 were pre-treated with 1 μg/ml TRC105 24 hours prior to irradiation with 4 Gy. FIG. 22A) γ-H2AX or p53 bp were imunolocalized at 4, 24, and 48 hours post radiation. Foci per nuclei were quantified (n=100). FIG. 22B) Comet assay was performed 30 minutes and 24 hours following irradiation. The tail moment was quantified (n=50). FIG. 22C) Cell cycle analysis was performed on 22Rv1 at 0, 4, 8, and 24 hours post radiation in the presence of IgG or TRC105 (n=3) in 3 independent experiments. (***p<0.001, ****p<0.0001).

[1] = tested on: CD105 cell surface expression in human CW22Rv1 epithelia and mouse prostatic fibroblasts; test: 3D co-culture, CD105 cell surface expression by FACS; type: cell-based; settings: hypoxia (2% O2), 72 hours; mouse prostatic fibroblasts and human prostate cancer epithelia
Experimental: After 72 hours, the cells were dissociated and assessed by FACS for CD105 expression as shown.
A modified version of the 3D organotypic co-culture system was performed in a collagen matrix similar to that previously reported (Stark et al., 1999, J Invest Dermatol 112, 681-691). Collagen matrix gels were prepared by mixing five volumes of rat tail collagen I with two volumes of matrigel (NCI), one volume of 10× DMEM medium (GE Healthcare Life Sciences), and one volume of FBS (Atlanta Biologicals), Rv1 and primary mouse prostatic fibroblasts were combined in a 1:3 ratio. Nylon squares were coated with collagen and placed on metal grids in a 6-well plate. Gel plugs (150 μl) were transferred onto the nylon squares and media was added to the level of the nylon mesh. After 72 hours, the cells were dissociated from the matrix with collagenase and dispersed for FACS analysis.
FACS experiments were performed with eBiosciences antibodies: anti-human Stro-1-FITC (340105), anti-human CD90-PE (12-0909-42), anti-human CD105-APC (17-1057-41), anti-mouse CD105-APC (17-1051-82), anti-human CD117-PE-Cy7 (15-1178-41), anti-human Ki67-PECy7 (25-5699-41), and anti-human EpCAM-PE (12-9326-41). All events were acquired on a BD LSRII flow cytometer in the Cedars-Sinai Medical Center FACS core installed with BD FACSDiva software. Files were analyzed using FlowJo software v10.2. […]

mtDNA in 22Rv1 cells = test: Mitochondrial DNA quantitation; type: cell-based, human; settings: radiation in the presence of TRC105; p<0.0001
Experimental: FIGS. 24A-24D depict that PGC1α and mitochondrial biogenesis are regulated by BMP/CD105. 22Rv1 cells were incubated with IgG or TRC105 with or without 4 Gy irradiation. All measurements were made 72 hours post radiation. FIG. 24A) Western blot for whole cell lysate, nuclear and cytoplasmic fractions were independently analyzed for PGC1α expression. Loading controls included β-actin (whole cell), lamin B (nuclear marker), and Rho A (cytoplasm marker). FIG. 24B) Immunofluorescent localization of PGC1α was visualized with DAPI nuclear counterstain. FIG. 24C) mRNA expression of PGC1α target genes, NRF1, MTFA, and CPT1C was measured. mRNA expression was normalized to GAPDH and untreated IgG 0 Gy. FIG. 24D) Mitochondrial DNA (mtDNA) was measured from total DNA extracts and normalized to nuclear DNA and compared to untreated IgG 0 Gy. Data are reported as means+/−S.D. of 3 independent experiments. (***p<0.001, ****p<0.0001).

[2] = tested on: ID1 mRNA expression by Rv1 cells and mouse wild-type fibroblasts; test: Species specificity of CD105 antagonists, BMP-induced ID1 mRNA; type: cell-based, human; settings: 1 μg/ml; BMP 50 ng/mL, 6 hours
Experimental: All cells were pre-treated overnight in serum free media, then incubated with BMP (50 ng/mL) in the presence or absence of differing concentrations of concentrations of TRC105 or M1043 for 6 hours (mean+/−SD). Within each group, the left column depicts human PCa and right column depicts mouse fibroblasts.
Total RNA was extracted using the RNeasy kit (Qiagen). 1 μg RNA was used for cDNA synthesis using iSCRIPT cDNA synthesis kit (1708891, Bio-Rad). Quantitative RT-PCR was performed with 5 replicates using the Step One Real-Time PCR system (Applied Biosystems). Gene mRNA expression was normalized to GAPDH. Primer sequences can be found in the Table 1. For RNA-sequencing, Ion Proton AmpliSeq Transcriptome RNA Sequencing was performed achieving an average of 3M reads. We mapped an average of 88% of the reads to the human genome with Torrent Suite version 4.4.2.

CW22Rv1 xenograft model = test: Subcutaneous CW22Rv1 xenograft with radiation; type: in vivo, mice
Experimental: Tumor volumes were longitudinally measured. When tumor average volume reached […] mice were treated with IgG or TRC105 in the context of radiation (2 Gy for 5 days). Tumors were harvested 15 days after the first dose of radiation. FIG. 28A) Tumor volume fold change was normalized to the first dose of radiation (day 1, ***p<0.001). FIG. 28B) Each treatment was compared for doubling of tumor volume as a function of time as depicted in the cumulative incidence plot.
The inventors assessed CD105 dependent radio-resistance using a CW22Rv1 xenograft model. Mice engrafted with subcutaneous CW22Rv1 were given one dose of IgG or TRC105 72 hours prior to radiation and subsequently 3 times a week for the duration of radiation treatment. The irradiated IgG and irradiated TRC105 groups were given a radiation dosage of 2Gy for 5 consecutive days. Fold change in tumor volume was calculated for each group (FIG. 28A).

## TRC105: partially humanized monoclonal antibody that blocks BMP signaling; human-specific CD105 (endoglin) neutralizing antibody from Tracon Pharmaceuticals
22Rv1 cells; 30 minutes post radiation, p<0.001
  tail moment: significant increase in tail moment
22Rv1 cells; after 24 hours
  tail moment: no significant difference
[1]
  enzalutamide-induced CD105 cell surface expression: down regulated
mtDNA in 22Rv1 cells
  mtDNA: dramatic down regulation of mtDNA
[2]
  cross-species reactivity: no cross-species reactivity
CW22Rv1 xenograft model; TRC105 alone compared to untreated
  tumor volume: did not influence tumor volume
CW22Rv1 xenograft model; TRC105 with irradiation vs either treatment alone
  tumor doubling time: appreciably inhibited
CW22Rv1 xenograft model; radiation (2Gy for 5 days) and TRC105, p<0.001
  tumor volume: significantly lower than the other three experimental groups
